Experimental findings from patent US20100184751A1, “HETEROCYCLIC COMPOUNDS FOR THE TREATMENT OF TUBERCULOSIS” (priority 2007, published 2010) are described below.

As usually defined, the MIC is the lowest concentration that inhibits growth of the organism.

The test system of the assay is Mycobacterium tuberculosis H37Rv. As to the kind of experiment: Mycobacterium tuberculosis H37Rv inhibition assay (resazurin MIC). It is filed as cell-based. As to conditions: ATCC 25618 / H37Rv, read-out: MIC value. On the technique in general: The colour change of resazurin is a common sign of viable cells or microbes.
The mark [1] stands for this setting: 144 h, H37Rv strain (ATCC25618), Middlebrook 7H9, 37° C., six days, resazurin fluorescence after 48 hours.
The mark [2] stands for this setting: H37Rv strain (ATCC25618), Middlebrook 7H9, 37° C., six days, resazurin fluorescence after 48 hours.

The structures appear in SMILES notation. Where a name gives a salt, the structure may show the parent alone. Read-outs that look alike come from different tables or passages of the source.

In the case of `O=C1COc2cnc(CNC3CCN(C[C@]4(O)Cn5c(=O)ccc6ncc(F)c4c65)CC3)nc2N1` [Example 70, (4S)-3-fluoro-4-hydroxy-4-[(4-{[(7-oxo-6,7-dihydro-1H-pyrimido[5,4-b][1,4]oxazin-2-yl)methyl]amino}-1-piperidinyl)methyl]-4,5-dihydro-7H-pyrrolo[3,2,1-de]-1,5-naphthyridin-7-one Dihydrochloride], the MIC was ≤ 1.7 µg/mL. The MIC (144 h) was ≤ 4 µg/mL. Consider `O=c1ccc2ncc(F)c3c2n1C[C@@]3(O)CN1CCC(NCc2ncc3c(n2)OCCO3)CC1` [Example 69, (4S)-4-({4-[6,7-dihydro[1,4]dioxino[2,3-d]pyrimidin-2-ylmethyl]amino]-1-piperidinyl}methyl)-3-fluoro-4-hydroxy-4,5-dihydro-7H-pyrrolo[3,2,1-de]-1,5-napthyridin-7-one (E1 Enantiomer Series) Dihydrochloride], for which the MIC under setting [1] is ≤ 4 µg/mL. On the same count and under the same terms, with `O=c1ccc2ncc(F)c3c2n1C[C@@]3(O)CN1CCC(NCc2cc3ccccc3cn2)CC1` [Example 36, (4S)-3-fluoro-4-hydroxy-4-({4-[(3-isoquinolinylmethyl)amino]-1-piperidinyl}methyl)-4,5-dihydro-7H-pyrrolo[3,2,1-de]-1,5-naphthyridin-7-one] the figure was ≤ 4 µg/mL.

Consider `O=c1ccc2ncc(F)c3c2n1C[C@@]3(O)CN1CCC(NCc2ccc3nonc3c2)CC1` [Example 48, (4S)-4-({4-[(2,1,3-benzoxadiazol-5-ylmethyl)amino]-1-piperidinyl}methyl)-3-fluoro-4-hydroxy-4,5-dihydro-7H-pyrrolo[3,2,1-de]-1,5-naphthyridin-7-one], for which the MIC under setting [1] was ≤ 4 µg/mL and the MIC under setting [2] was ≤ 1.7 µg/mL.

Turning to `O=c1ccc2ncc(F)c3c2n1C[C@@]3(O)CN1CCC(NCc2cnc3snnc3c2)CC1` [Example 56, (4S)-3-fluoro-4-hydroxy-4-({4-[([1,2,3]thiadiazolo[5,4-b]pyridin-6-ylmethyl)amino]-1-piperidinyl}methyl)-4,5-dihydro-7H-pyrrolo[3,2,1-de]-1,5-naphthyridin-7-one], the MIC is ≤ 4 µg/mL under setting [1] and ≤ 1.7 µg/mL under setting [2]. In the case of `O=c1ccc2ncc(F)c3c2n1CC3(F)CN1CCC(NCc2cc3c(cn2)OCCO3)CC1` (stereo not drawn) [Example 26B, 4-({4-[(2,3-Dihydro[1,4]dioxino[2,3-c]pyridin-7-ylmethyl)amino]-1-piperidinyl}methyl)-3,4-difluoro-4,5-dihydro-7H-pyrrolo[3,2,1-de]-1,5-naphthyridin-7-one Dihydrochloride(E1 Enantiomer)], the MIC (144 h) is ≤ 4 µg/mL. Consider `O=c1ccc2ncc(F)c3c2n1C[C@@]3(O)CN1CCC(NCc2cnc3ccccc3c2)CC1` [Example 37, (4S)-3-fluoro-4-hydroxy-4-({4-[(3-quinolinylmethyl)amino]-1-piperidinyl}methyl)-4,5-dihydro-7H-pyrrolo[3,2,1-de]-1,5-naphthyridin-7-one], for which the minimum inhibitory concentration (MIC) runs as follows: under setting [1], ≤ 4 µg/mL; under setting [2], ≤ 1.7 µg/mL. As for `O=c1ccc2ncc(Cl)c3c2n1CC3(O)CN1CCC(NCc2cc3c(cn2)OCCC3)CC1` (racemic) [Example 13, (4R/S)-3-Chloro-4-({4-[(3,4-dihydro-2H-pyrano[2,3-c]pyridin-6-ylmethyl)amino]-1-piperidinyl}methyl)-4-hydroxy-4,5-dihydro-7H-pyrrolo[3,2,1-de]-1,5-naphthyridin-7-one Dihydrochloride], under setting [1], the MIC is ≤ 4 µg/mL.

In the case of `O=c1ccc2ncc(F)c3c2n1C[C@@]3(O)CN1CCC(NCc2ccc3nnsc3c2)CC1` [Example 53, (4S)-4-({4-[(1,2,3-benzothiadiazol-6-ylmethyl)amino]-1-piperidinyl}methyl)-3-fluoro-4-hydroxy-4,5-dihydro-7H-pyrrolo[3,2,1-de]-1,5-naphthyridin-7-one], the MIC by setting is: under setting [1], ≤ 4 µg/mL; under setting [2], ≤ 1.7 µg/mL.

As to `N#Cc1cc(CNC2CCN(C[C@]3(O)Cn4c(=O)ccc5ncc(F)c3c54)CC2)cc2c1OCC2` [Example 41, 5-{[(1-{[(4S)-3-fluoro-4-hydroxy-7-oxo-4,5-dihydro-7H-pyrrolo[3,2,1-de]-1,5-naphthyridin-4-yl]methyl}-4-piperidinyl)amino]methyl}-2,3-dihydro-1-benzofuran-7-carbonitrile], the MIC reads like this: under setting [1], ≤ 4 µg/mL; under setting [2], ≤ 1.7 µg/mL. For `O=c1ccc2ncc(F)c3c2n1C[C@@]3(O)CN1CCC(NCc2cc3c(cn2)SCCO3)CC1` [Example 23A, Dihydrochloride], the MIC is, setting by setting: under setting [1], ≤ 4 µg/mL; under setting [2], ≤ 1.7 µg/mL. For the compound `O=c1ccc2ncc(F)c3c2n1C[C@@]3(O)CN1CCC(NCc2ccc3c(c2)OCCO3)CC1` [Example 3A, (4S)-4-({4-[(2,3-Dihydro-1,4-benzodioxin-6-ylmethyl)amino]-1-piperidinyl}methyl)-3-fluoro-4-hydroxy-4,5-dihydro-7H-pyrrolo[3,2,1-de]-1,5-naphthyridin-7-one (E1 Enantiomer Series) Dihydrochloride], the minimal inhibitory concentration (MIC) is ≤ 4 µg/mL under setting [1] and ≤ 1.7 µg/mL under setting [2].

In the case of `O=C1COc2ccc(CNC3CCN(CC4(F)Cn5c(=O)ccc6ncc(F)c4c65)CC3)nc2N1` (stereo not drawn) [Example 32, 3,4-Difluoro-4-[(4-{[(3-oxo-3,4-dihydro-2H-pyrido[3,2-b][1,4]oxazin-6-yl)methyl]amino}-1-piperidinyl)methyl]-4,5-dihydro-7H-pyrrolo[3,2,1-de]-1,5-naphthyridin-7-one Dihydrochloride (E1 Enantiomer)], the minimal inhibitory concentration (MIC) is ≤ 1.7 µg/mL. The minimum inhibitory concentration (MIC) (144 h) was ≤ 4 µg/mL.

Consider `O=c1ccc2ncc(F)c3c2n1C[C@@]3(O)CN1CCC(NCc2ccc3snnc3c2)CC1` [Example 46, (4S)-4-({4-[(1,2,3-benzothiadiazol-5-ylmethyl)amino]-1-piperidinyl}methyl)-3-fluoro-4-hydroxy-4,5-dihydro-7H-pyrrolo[3,2,1-de]-1,5-naphthyridin-7-one], for which the MIC by setting is: under setting [1], ≤ 4 µg/mL; under setting [2], ≤ 1.7 µg/mL. In the case of `O=c1ccc2ncc(F)c3c2n1C[C@@]3(O)CN1CCC(NCc2cc3c(cn2)OCS3)CC1` [Example 10B, (4S)-3-Fluoro-4-hydroxy-4-({4-[([1,3]oxathiolo[5,4-c]pyridin-6-ylmethyl)amino]-1-piperidinyl}methyl)-4,5-dihydro-7H-pyrrolo[3,2,1-de]-1,5-naphthyridin-7-one (E1 enantiomer series) hydrochloride], the MIC runs as follows: under setting [1], ≤ 4 µg/mL; under setting [2], ≤ 1.7 µg/mL. On to `O=c1ccc2ncc(F)c3c2n1C[C@@]3(O)CN1CCC(NCc2ccc3scnc3c2)CC1` [Example 42, (4S)-4-({4-[(1,3-benzothiazol-5-ylmethyl)amino]-1-piperidinyl}methyl)-3-fluoro-4-hydroxy-4,5-dihydro-7H-pyrrolo[3,2,1-de]-1,5-naphthyridin-7-one], for which the minimum inhibitory concentration (MIC) under setting [1] was ≤ 4 µg/mL.

For `O=c1c(F)cc2ncc(F)c3c2n1C[C@@]3(O)CN1CCC(NCc2cc3c(cn2)OCCO3)CC1` [Example 20A, (4S)-4-({4-[(2,3-Dihydro[1,4]dioxino[2,3-c]pyridin-7-ylmethyl)amino]-1-piperidinyl}methyl)-3,8-difluoro-4-hydroxy-4,5-dihydro-7H-pyrrolo[3,2,1-de]-1,5-naphthyridin-7-one (E1 enantiomer series)], the minimal inhibitory concentration (MIC) under setting [1] was ≤ 4 µg/mL. With `O=c1ccc2ncc(F)c3c2n1C[C@@]3(O)CN1CCC(NCc2ccc3nsnc3c2)CC1` [Example 35, (4S)-4-({4-[(2,1,3-benzothiadiazol-5-ylmethyl)amino]-1-piperidinyl}methyl)-3-fluoro-4-hydroxy-4,5-dihydro-7H-pyrrolo[3,2,1-de]-1,5-naphthyridin-7-one], the minimum inhibitory concentration (MIC) is ≤ 4 µg/mL under setting [1] and ≤ 1.7 µg/mL under setting [2]. For the compound `O=c1ccc2ncc(Cl)c3c2n1CC3(O)CN1CCC(NCc2cc3c(cn2)OCS3)CC1` (racemic) [Example 15, (4R/S)-3-Chloro-4-hydroxy-4-({4-[([1,3]oxathiolo[5,4-c]pyridin-6-ylmethyl)amino]-1-piperidinyl}methyl)-4,5-dihydro-7H-pyrrolo[3,2,1-de]-1,5-naphthyridin-7-one Dihydrochloride], under setting [1], the minimal inhibitory concentration (MIC) was ≤ 4 µg/mL. Regarding `O=C1COc2cc(Cl)c(CNC3CCN(C[C@]4(O)Cn5c(=O)ccc6ncc(F)c4c65)CC3)nc2N1` [Example 40, (4S)-4-[(4-{[(7-chloro-3-oxo-3,4-dihydro-2H-pyrido[3,2-b][1,4]oxazin-6-yl)methyl]amino}-1-piperidinyl)methyl]-3-fluoro-4-hydroxy-4,5-dihydro-7H-pyrrolo[3,2,1-de]-1,5-naphthyridin-7-one], the MIC runs as follows: under setting [1], ≤ 4 µg/mL; under setting [2], ≤ 1.7 µg/mL. As for `O=c1ccc2ncc(F)c3c2n1C[C@@]3(O)CN1CCC(NCc2cc3c(cn2)OCCO3)CC1` [Example 1, (4S)-4-({4-[(2,3-Dihydro[1,4]dioxino[2,3-c]pyridin-7-ylmethyl)amino]-1-piperidinyl}methyl)-3-fluoro-4-hydroxy-4,5-dihydro-7H-pyrrolo[3,2,1-de]-1,5-naphthyridin-7-one (E1 Enantiomer Series) Hydrochloride], the MIC under setting [1] was ≤ 4 µg/mL. On to `O=C1CSc2ccc(CNC3CCN(CC4(O)Cn5c(=O)ccc6ncc(Cl)c4c65)CC3)nc2N1` (racemic) [Example 14, (4R/S)-3-Chloro-4-hydroxy-4-[(4-{[(3-oxo-3,4-dihydro-2H-pyrido[3,2-b][1,4]thiazin-6-yl)methyl]amino}-1-piperidinyl)methyl]-4,5-dihydro-7H-pyrrolo[3,2,1-de]-1,5-naphthyridin-7-one Dihydrochloride], for which the MIC is ≤ 1.7 µg/mL. For the same compound, under setting [1], the minimal inhibitory concentration (MIC) is ≤ 4 µg/mL. Take `O=c1ccc2ncc(F)c3c2n1C[C@@]3(O)CN1CCC(NCc2ccc3ccccc3n2)CC1` [Example 51, (4S)-3-fluoro-4-hydroxy-4-({4-[(2-quinolinylmethyl)amino]-1-piperidinyl}methyl)-4,5-dihydro-7H-pyrrolo[3,2,1-de]-1,5-naphthyridin-7-one]: under setting [1], the minimal inhibitory concentration (MIC) was ≤ 4 µg/mL.
